Assay results from patent US9833454B2, “Difluoromethoxy compound with low bioactivation potential for the reduction of beta-amyloid production” (BRISTOL-MYERS SQUIBB COMPANY, priority 2014, dated 2017).

Columns and labels:
monoamine oxidase A = molecular target: T1, monoamine oxidase A (Homo sapiens, UniProt P21397); test: In vitro safety: off-target receptor binding and enzyme assays, MAO A; assay type: biochemical; conditions: in vitro safety panel
T1 sequence (P21397 1-527): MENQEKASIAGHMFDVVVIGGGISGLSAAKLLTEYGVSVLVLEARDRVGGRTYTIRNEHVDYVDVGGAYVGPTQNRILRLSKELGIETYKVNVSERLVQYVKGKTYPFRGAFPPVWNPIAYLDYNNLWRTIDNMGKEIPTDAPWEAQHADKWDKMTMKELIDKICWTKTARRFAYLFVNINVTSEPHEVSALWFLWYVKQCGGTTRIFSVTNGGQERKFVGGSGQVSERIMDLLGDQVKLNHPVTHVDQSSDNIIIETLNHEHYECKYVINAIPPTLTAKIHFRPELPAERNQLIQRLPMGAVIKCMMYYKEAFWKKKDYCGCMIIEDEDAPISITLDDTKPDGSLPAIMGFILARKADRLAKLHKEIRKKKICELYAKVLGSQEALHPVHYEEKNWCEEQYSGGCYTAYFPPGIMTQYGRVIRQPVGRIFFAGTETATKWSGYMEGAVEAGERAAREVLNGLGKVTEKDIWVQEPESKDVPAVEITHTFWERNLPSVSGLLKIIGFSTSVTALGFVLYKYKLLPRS
Description: A range of off-target receptor binding assays and enzyme assays were carried out using conventional methods available in the art.

Aβ42 = test: Determination of Aβ42 IC50; assay type: cell-based
Description: Aβ42 IC50 was determined as described by Gillman, J. E. Starrett Jr., M. F. Parker, et al., “Discovery and evaluation of BMS-708163, a potent, and orally bioavailable gamma-secretase inhibitor”, ACS Medicinal Chemistry Letters, vol. 1., pp. 120-124, 2010. Mouse brain Aβ42 was determined as described by J. H. Toyn, X-A. Lin, M. W. Thompson et al., “Viable mouse gene ablations that robustly alter bran Abeta levels are are”, Biomed. Central Neuroscience, vol. 11, pp. 143, […].

CYP1A2 = molecular target: T2, CYP1A2 (Homo sapiens, UniProt P05177); test: Inhibition of recombinant CYP enzymes (rCYP), CYP1A2
T2 sequence (P05177 1-516): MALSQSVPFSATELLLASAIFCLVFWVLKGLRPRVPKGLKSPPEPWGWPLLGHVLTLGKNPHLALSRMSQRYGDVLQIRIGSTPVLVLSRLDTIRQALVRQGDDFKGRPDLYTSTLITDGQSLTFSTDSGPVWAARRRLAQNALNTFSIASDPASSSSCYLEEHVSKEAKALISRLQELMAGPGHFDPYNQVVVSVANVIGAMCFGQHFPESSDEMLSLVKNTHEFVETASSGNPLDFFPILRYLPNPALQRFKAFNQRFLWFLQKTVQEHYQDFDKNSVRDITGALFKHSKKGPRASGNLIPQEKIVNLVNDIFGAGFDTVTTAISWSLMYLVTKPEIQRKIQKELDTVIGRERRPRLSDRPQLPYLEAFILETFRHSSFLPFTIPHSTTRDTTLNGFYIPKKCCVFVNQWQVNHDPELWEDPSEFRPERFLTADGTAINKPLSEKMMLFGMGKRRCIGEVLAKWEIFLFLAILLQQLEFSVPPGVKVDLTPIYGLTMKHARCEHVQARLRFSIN

CYP3A4 [1] = molecular target: T3, CYP3A4 (Homo sapiens, UniProt P08684); test: HLM CYP3A4 Inactivation Assay; assay type: in vitro ADME
CYP2B6 = molecular target: T4, CYP2B6 (Homo sapiens, UniProt P20813); test: Inhibition of recombinant CYP enzymes (rCYP), CYP2B6; assay type: in vitro ADME; conditions: average of two experiments, read-out: rCYP IC50 2B6
T4 sequence (P20813 1-491): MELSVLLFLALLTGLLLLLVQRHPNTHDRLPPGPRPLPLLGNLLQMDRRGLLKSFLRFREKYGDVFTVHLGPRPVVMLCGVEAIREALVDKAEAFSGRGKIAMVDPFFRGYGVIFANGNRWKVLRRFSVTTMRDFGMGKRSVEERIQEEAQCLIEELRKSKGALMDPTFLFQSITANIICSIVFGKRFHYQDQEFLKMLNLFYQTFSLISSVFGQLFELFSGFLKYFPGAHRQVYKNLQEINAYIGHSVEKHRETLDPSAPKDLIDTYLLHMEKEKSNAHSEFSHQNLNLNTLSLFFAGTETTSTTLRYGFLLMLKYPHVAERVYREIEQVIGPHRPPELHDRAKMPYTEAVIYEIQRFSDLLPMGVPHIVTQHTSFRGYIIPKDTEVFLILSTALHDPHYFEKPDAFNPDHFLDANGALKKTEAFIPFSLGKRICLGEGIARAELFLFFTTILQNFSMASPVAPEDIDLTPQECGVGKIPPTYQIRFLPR

CYP2C8 [2] = molecular target: T5, CYP2C8 (Homo sapiens, UniProt P10632); test: Inhibition of recombinant CYP enzymes (rCYP), CYP2C8; assay type: in vitro ADME; conditions: average of two experiments, read-out: rCYP IC50 2C8
T5 sequence (P10632 1-490): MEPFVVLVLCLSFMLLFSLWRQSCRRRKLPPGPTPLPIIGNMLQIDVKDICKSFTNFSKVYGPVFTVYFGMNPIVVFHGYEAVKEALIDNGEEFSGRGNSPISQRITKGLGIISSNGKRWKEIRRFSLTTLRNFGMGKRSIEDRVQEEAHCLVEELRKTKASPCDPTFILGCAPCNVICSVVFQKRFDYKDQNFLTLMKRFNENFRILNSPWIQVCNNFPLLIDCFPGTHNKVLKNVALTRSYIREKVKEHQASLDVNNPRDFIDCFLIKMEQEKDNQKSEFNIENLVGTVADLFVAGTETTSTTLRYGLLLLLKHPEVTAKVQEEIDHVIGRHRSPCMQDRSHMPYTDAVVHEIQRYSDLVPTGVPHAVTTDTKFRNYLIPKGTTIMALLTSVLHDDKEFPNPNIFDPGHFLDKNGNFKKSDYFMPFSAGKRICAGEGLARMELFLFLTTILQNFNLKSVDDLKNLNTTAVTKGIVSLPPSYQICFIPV

CYP2C8 [3] = molecular target: T5, CYP2C8; test: Inhibition of CYP enzymes in human liver microsomes (HLM), CYP2C8; assay type: in vitro ADME
CYP3A4 [4] = molecular target: T3, CYP3A4; test: Inhibition of CYP enzymes in human liver microsomes (HLM), CYP3A4 (midazolam and testosterone); conditions: IC50 shift 0 vs 30 min preincubation (TDI ratio)
[5] = HLM, all tested concentrations 0.31-20 μM, up to 25 min

T3 sequence (P08684 whole entry): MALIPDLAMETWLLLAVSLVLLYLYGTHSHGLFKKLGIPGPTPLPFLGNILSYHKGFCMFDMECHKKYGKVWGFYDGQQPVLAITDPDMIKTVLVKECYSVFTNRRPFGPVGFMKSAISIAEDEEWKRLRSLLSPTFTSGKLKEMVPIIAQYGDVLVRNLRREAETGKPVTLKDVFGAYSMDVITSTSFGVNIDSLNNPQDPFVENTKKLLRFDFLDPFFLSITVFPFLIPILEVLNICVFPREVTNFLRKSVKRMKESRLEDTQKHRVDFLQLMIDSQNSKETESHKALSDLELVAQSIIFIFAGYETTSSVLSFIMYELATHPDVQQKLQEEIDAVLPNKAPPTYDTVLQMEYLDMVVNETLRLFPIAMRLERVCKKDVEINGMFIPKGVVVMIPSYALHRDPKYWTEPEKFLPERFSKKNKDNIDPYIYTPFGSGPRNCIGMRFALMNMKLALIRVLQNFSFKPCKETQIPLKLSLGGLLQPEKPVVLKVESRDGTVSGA

IC50 (Aβ42): 0.0012 µM
IC50 (CYP1A2): > 20 µM
apparent rates of inactivation (kobs) with midazolam (CYP3A4 [1]; [5]): < 0.003 min⁻¹
apparent rates of inactivation (kobs) with testosterone (CYP3A4 [1]; [5]): < 0.006 min⁻¹
IC50 (CYP2B6): > 20 µM
IC50 (CYP2C8 [2]): 0.96 µM
IC50 (CYP2C8 [3]; HLM, 0 min preincubation, read-out: IC50-0 min 2C8): 4.2 µM
IC50 Ratio 2C8 (CYP2C8 [3]; HLM, IC50 shift 0 vs 30 min preincubation (TDI ratio)): 1.9
IC50 (CYP2C8 [3]; IC50-30 min 2C8, HLM, 30 min preincubation with NADPH): 2.2 µM
IC50 Ratio 3A4-(MDZ) (CYP3A4 [4]; midazolam probe): 2.6
IC50 Ratio 3A4-(TST) (CYP3A4 [4]; testosterone probe): 2.7
SMILES: CNc1nc(Nc2ccc(-n3cnc(C)n3)c(OC(F)F)c2)nc2c1C(C)(C)CC2c1ccc(F)cc1 (single isomer, unassigned) [Enantiomer 1, N2-(3-(difluoromethoxy)-4-(3-methyl-1H-1,2,4-triazol-1-yl)phenyl)-7-(4-fluorophenyl)-N4,5,5-trimethyl-6,7-dihydro-5H-cyclopenta[d]pyrimidine-2,4-diamine]
IC50 (monoamine oxidase A): 8 to 10 µM
KI; Kinact (CYP3A4 [1]; HLM CYP3A4 inactivation): Inactivation rates below the limit of reliable
mechanism-based inhibition of CYP3A4 (CYP3A4 [1]; HLM, midazolam and testosterone probes): not a mechanism-based inhibitor of CYP3A4
